The results in this text go back to patent US20240246964A1 (Arbutus Biopharma Corporation, priority 2021, published 2024).

Assay [1] has as its target PD-L1 His protein / PD-1 Fc protein (Homo sapiens (Human), UniProt Q9NZQ7). Briefly: HTRF Assay (PD-1/PD-L1 interaction). The assay is classed as binding. The conditions noted are these: PD-L1 His 6 nM, PD-1 Fc 6 nM. Background: In TR-FRET formats the signal depends on donor and acceptor labels being close together.
In a further assay the target is human PD-L1 (Homo sapiens (Human), UniProt Q9NZQ7). Briefly: T cell activation luciferase reporter cell culture system (T Cell Activation Assay). The assay is classed as cell-based. To be noted: luciferase reporter assay; PD-L1 aAPC/CHO-K1 cells with PD-1 effector Jurkat T cells. A general note: A reporter such as luciferase makes a cellular process visible.

What is called IC50 is the concentration that inhibits the measured activity by half. Read a high IC50 as weaker potency in that assay. By EC50 is commonly meant the concentration at which the effect is half-maximal. Higher therefore signals a need for much substance.

Chain of PD-L1 His protein / PD-1 Fc protein (Q9NZQ7 19-238): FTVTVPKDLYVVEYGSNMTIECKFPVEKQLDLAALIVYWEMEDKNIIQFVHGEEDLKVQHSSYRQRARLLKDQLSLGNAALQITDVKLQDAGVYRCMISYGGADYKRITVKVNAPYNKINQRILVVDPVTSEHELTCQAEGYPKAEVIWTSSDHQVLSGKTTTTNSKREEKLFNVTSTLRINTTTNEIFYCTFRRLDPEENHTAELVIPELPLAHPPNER
Chain of human PD-L1 (Q9NZQ7 19-290): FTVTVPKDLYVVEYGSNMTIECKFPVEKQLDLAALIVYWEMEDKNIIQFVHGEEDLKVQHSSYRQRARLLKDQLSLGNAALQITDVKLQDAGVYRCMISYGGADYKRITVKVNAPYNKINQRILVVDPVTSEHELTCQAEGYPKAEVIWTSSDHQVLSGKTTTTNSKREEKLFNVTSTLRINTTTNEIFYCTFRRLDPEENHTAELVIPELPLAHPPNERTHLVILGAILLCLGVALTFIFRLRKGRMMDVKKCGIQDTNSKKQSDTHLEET

`COc1cc(-c2nccc(-c3cccc(-c4ccc(CNCCCF)c(OC)n4)c3C(F)(F)F)c2Cl)ccc1CNCCCF` [Example 587, N-((6-(3-(3-Chloro-2-(4-(((3-fluoropropyl)amino)methyl)-3-methoxyphenyl)pyridin-4-yl)-2-(trifluoromethyl)phenyl)-2-methoxypyridin-3-yl)methyl)-3-fluoropropan-1-amine] returned an IC50 in assay [1] of 160 nM. On human PD-L1, this compound yielded an EC50 of at least 10000 nM.
In the case of `COc1cc(-c2nccc(-c3cccc(-c4ccc(CNC56CC(CO)(C5)C6)c(OC)n4)c3Cl)c2Cl)ccc1CNC12CC(CO)(C1)C2` [Example 591, (3-(((6-(2-chloro-3-(3-chloro-2-(4-(((3-(hydroxymethyl)bicyclo[1.1.1]pentan-1-yl)amino)methyl)-3-methoxyphenyl)pyridin-4-yl)phenyl)-2-methoxypyridin-3-yl)methyl)amino)bicyclo[1.1.1]pentan-1-yl)methanol], in assay [1], the IC50 worked out at 24.5 nM. This compound gave an EC50 at human PD-L1 of 469 nM.
With `COc1cc(-c2ncnc(-c3cccc(-c4ccc(CN[C@H]5C[C@H](O)C5)c(OC)n4)c3Cl)c2Cl)ccc1CN[C@H]1C[C@H](O)C1` [Example 593, (1r,3r)-3-(((6-(2-Chloro-3-(5-chloro-6-(4-((((1r,3r)-3-hydroxycyclobutyl)amino)methyl)-3-methoxyphenyl)pyrimidin-4-yl)phenyl)-2-methoxypyridin-3-yl)methyl)amino)cyclobutan-1-ol], the IC50 in assay [1] was 0.16 nM. On human PD-L1, this compound registered a half-maximal effective concentration (EC50) of 104 nM.
`COc1nc(-c2cccc(-c3ccnc(-c4cc(OC)c5nc(CN[C@H]6CC[C@H](O)CC6)nn5c4)c3Cl)c2Cl)ccc1CNC1CCN(C(C)=O)CC1` [Example 595, 1-(4-(((6-(2-Chloro-3-(3-chloro-2-(2-((((1r,4r)-4-hydroxycyclohexyl)amino)methyl)-8-methoxy-[1,2,4]triazolo[1,5-a]pyridin-6-yl)pyridin-4-yl)phenyl)-2-methoxypyridin-3-yl)methyl)amino)piperidin-1-yl)ethan-1-one]: the IC50 in assay [1] turned out to be 0.38 nM. A half-maximal effect at human PD-L1 (EC50) was put at 211 nM.
For the compound `COc1cc(-c2nccc(-c3cccc(-c4ccc([C@H](C)NC5CCN(C(C)=O)CC5)c(OC)n4)c3Cl)c2Cl)ccc1[C@H](C)NC1CCN(C(C)=O)CC1` [Example 599, 1-(4-(((S)-1-(6-(3-(2-(4-((S)-1-((1-Acetylpiperidin-4-yl)amino)ethyl)-3-methoxyphenyl)-3-chloropyridin-4-yl)-2-chlorophenyl)-2-methoxypyridin-3-yl)ethyl)amino)piperidin-1-yl)ethan-1-one], the IC50 in assay [1] was 1.01 nM. This compound also yielded an EC50 at human PD-L1 of at least 10000 nM.
Compound `COCC(=O)N1CCC(NCc2ccc(-c3nccc(-c4cccc(-c5ccc(CNC6CCN(C(=O)COC)CC6)c(OC)n5)c4C(F)(F)F)c3Cl)cc2OC)CC1` [Example 602, 1-(4-(((6-(3-(3-Chloro-2-(3-methoxy-4-(((1-(2-methoxyacetyl)piperidin-4-yl)amino)methyl)phenyl)pyridin-4-yl)-2-(trifluoromethyl)phenyl)-2-methoxypyridin-3-yl)methyl)amino)piperidin-1-yl)-2-methoxyethan-1-one] displayed an IC50 in assay [1] of 41.3 nM. The compound further returned an EC50 on human PD-L1 of at least 10000 nM.
On to `COc1cc(-c2nccc(-c3cccc(-c4ccc(CNC[C@@H]5CCC(=O)N5)c(OC)n4)c3C(F)(F)F)c2Cl)ccc1CNC[C@@H]1CCC(=O)N1` [Example 610, (S)-5-((((6-(3-(3-Chloro-2-(3-methoxy-4-(((((S)-5-oxopyrrolidin-2-yl)methyl)amino)methyl)phenyl)pyridin-4-yl)-2-(trifluoromethyl)phenyl)-2-methoxypyridin-3-yl)methyl)amino)methyl)pyrrolidin-2-one], for which the IC50 in assay [1] worked out at 1.52 nM. This compound registered an EC50 on human PD-L1 of 2110 nM.
In turn, `COc1nc(-c2cccc(-c3ccnc(-c4cc(OC)c5nc(CN6CC(C)(O)C6)nn5c4)c3Cl)c2Cl)ccc1CNC1CCN(C(C)=O)CC1` [Example 637, 1-(4-(((6-(2-chloro-3-(3-chloro-2-(2-((3-hydroxy-3-methylazetidin-1-yl)methyl)-8-methoxy-[1,2,4]triazolo[1,5-a]pyridin-6-yl)pyridin-4-yl)phenyl)-2-methoxypyridin-3-yl)methyl)amino)piperidin-1-yl)ethan-1-one] showed an IC50 in assay [1] of 0.29 nM. On human PD-L1, the EC50 stood at 116 nM.
Consider `COc1nc(-c2cccc(-c3ccnc(-c4cc(OC)c5nc(CNC[C@@H](C)O)nn5c4)c3Cl)c2Cl)ccc1CNC1CCN(C(C)=O)CC1` [Example 638, (R)-1-(4-(((6-(2-Chloro-3-(3-chloro-2-(2-(((2-hydroxypropyl)amino)methyl)-8-methoxy-[1,2,4]triazolo[1,5-a]pyridin-6-yl)pyridin-4-yl)phenyl)-2-methoxypyridin-3-yl)methyl)amino)piperidin-1-yl)ethan-1-one], for which the IC50 in assay [1] came out at 0.2 nM. For the same compound, the EC50 on human PD-L1 is 94.9 nM.
On the same counts, the results for `COc1cc(-c2ncnc(-c3cccc(-c4ccc(CNCc5cnco5)c(OC)n4)c3Cl)c2Cl)ccc1CNCc1cnco1` [Example 643, 1-(6-(2-Chloro-3-(5-chloro-6-(3-methoxy-4-(((oxazol-5-ylmethyl)amino)methyl)phenyl)pyrimidin-4-yl)phenyl)-2-methoxypyridin-3-yl)-N-(oxazol-5-ylmethyl)methanamine] are 4.17 nM and 1530 nM.
In assay [1], `COc1cc(-c2nccc(-c3cccc(NC(=O)c4ccc(CNC5CCN(C(C)=O)CC5)cn4)c3C)c2Cl)ccc1CNC1CCN(C(C)=O)CC1` [Example 645, 5-(((1-Acetylpiperidin-4-yl)amino)methyl)-N-(3-(2-(4-(((1-acetylpiperidin-4-yl)amino)methyl)-3-methoxyphenyl)-3-chloropyridin-4-yl)-2-methylphenyl)picolinamide] registered an IC50 of 0.44 nM. The compound further yielded an EC50 on human PD-L1 of 1410 nM.
On the same counts, the results for `COc1cc(-c2nccc(-c3cccc(NC(=O)c4ccc(CNC5CCOCC5)cn4)c3C)c2Cl)ccc1CNC1CCOCC1` [Example 646, N-(3-(3-Chloro-2-(3-methoxy-4-(((tetrahydro-2H-pyran-4-yl)amino)methyl)phenyl)pyridin-4-yl)-2-methylphenyl)-5-(((tetrahydro-2H-pyran-4-yl)amino)methyl)picolinamide] are 0.48 nM and 2710 nM.
With `COc1cc(-c2nccc(-c3cccc(NC(=O)c4ccc(CNCCO)cn4)c3C)c2Cl)ccc1CNCCO` [Example 648, N-(3-(3-Chloro-2-(4-(((2-hydroxyethyl)amino)methyl)-3-methoxyphenyl)pyridin-4-yl)-2-methylphenyl)-5-(((2-hydroxyethyl)amino)methyl)picolinamide], the IC50 in assay [1] was 0.05 nM. For the same compound, at human PD-L1, the EC50 is 142 nM.
On the same counts, the results for `COc1cc(-c2nccc(-c3cccc(NC(=O)c4ccc(CNC[C@H](C)O)cn4)c3C)c2Cl)ccc1CNC[C@H](C)O` [Example 650, N-(3-(3-Chloro-2-(4-((((S)-2-hydroxypropyl)amino)methyl)-3-methoxyphenyl)pyridin-4-yl)-2-methylphenyl)-5-((((S)-2-hydroxypropyl)amino)methyl)picolinamide] are 0.1 nM and 144 nM.
Regarding `COc1cc(-c2nccc(-c3cccc(-c4ccc(CNC5CC6(C5)CN(C(C)=O)C6)c(OC)n4)c3C(F)(F)F)c2Cl)ccc1CNC1CC2(C1)CN(C(C)=O)C2` (stereo not shown) [Example 651, 1-(6-(((6-(3-(2-(4-(((2-Acetyl-2-azaspiro[3.3]heptan-6-yl)amino)methyl)-3-methoxyphenyl)-3-chloropyridin-4-yl)-2-(trifluoromethyl)phenyl)-2-methoxypyridin-3-yl)methyl)amino)-2-azaspiro[3.3]heptan-2-yl)ethan-1-one], half-maximal inhibition in assay [1] (IC50) required 4.06 nM. For the same compound, the EC50 on human PD-L1 was at least 10000 nM.
For the compound `COc1cc(-c2nccc(-c3cccc(-c4ccc(CNC5CCOCC5)c(OC)n4)c3C#N)c2Cl)ccc1CNC1CCOCC1` [Example 652, 2-(3-Chloro-2-(3-methoxy-4-(((tetrahydro-2H-pyran-4-yl)amino)methyl)phenyl)pyridin-4-yl)-6-(6-methoxy-5-(((tetrahydro-2H-pyran-4-yl)amino)methyl)pyridin-2-yl)benzonitrile], in assay [1], it took 0.07 nM to reach half-maximal inhibition (IC50). In addition, the EC50 on human PD-L1 was found to be 227 nM.
The compound `COc1cc(-c2nccc(-c3cccc(-c4ccc(CN5CCN(C(C)=O)CC5)c(OC)n4)c3Cl)c2Cl)ccc1CN1CCN(C(C)=O)CC1` [Example 655, 1-(4-((6-(3-(2-(4-((4-Acetylpiperazin-1-yl)methyl)-3-methoxyphenyl)-3-chloropyridin-4-yl)-2-chlorophenyl)-2-methoxypyridin-3-yl)methyl)piperazin-1-yl)ethan-1-one] registered an IC50 in assay [1] of 9.58 nM. The EC50 at human PD-L1 was at least 10000 nM.
On the same counts, the results for `COc1cc(-c2nccc(-c3cccc(NC(=O)c4cn(C)c(=O)n(C)c4=O)c3Cl)c2Cl)ccc1CNC1CCN(C(C)=O)CC1` [Example 656, N-(3-(2-(4-(((1-Acetylpiperidin-4-yl)amino)methyl)-3-methoxyphenyl)-3-chloropyridin-4-yl)-2-chlorophenyl)-1,3-dimethyl-2,4-dioxo-1,2,3,4-tetrahydropyrimidine-5-carboxamide] are 0.16 nM and 589 nM.
Consider `COc1cc(-c2nccc(-c3cccc(NC(=O)c4cn(C)c(=O)n(C)c4=O)c3Cl)c2Cl)ccc1CNC[C@@H]1CCC(=O)N1` [Example 657, (S)—N-(2-Chloro-3-(3-chloro-2-(3-methoxy-4-((((5-oxopyrrolidin-2-yl)methyl)amino)methyl)phenyl)pyridin-4-yl)phenyl)-1,3-dimethyl-2,4-dioxo-1,2,3,4-tetrahydropyrimidine-5-carboxamide], for which half-maximal inhibition in assay [1] (IC50) was put at 0.14 nM. Further, a half-maximal response on human PD-L1 (EC50) required 33.3 nM.
Consider `COc1cc(-c2nccc(-c3cccc(NC(=O)c4cn(C)c(=O)n(C)c4=O)c3Cl)c2Cl)ccc1CN1CC2(CNC(=O)C2)C1` [Example 658, N-(2-Chloro-3-(3-chloro-2-(3-methoxy-4-((7-oxo-2,6-diazaspiro[3.4]octan-2-yl)methyl)phenyl)pyridin-4-yl)phenyl)-1,3-dimethyl-2,4-dioxo-1,2,3,4-tetrahydropyrimidine-5-carboxamide], for which, in assay [1], the IC50 was found to be 0.25 nM. The same compound registered an EC50 at human PD-L1 of 492 nM.
